Measured values as given in PMC5570892, “Indole-based perenosins as highly potent HCl transporters and potential anti-cancer agents” (Scientific Reports, 2017).

Experiments:
[1] = Cl^−/NO3^− ISE assay in POPC:cholesterol (7:3) vesicles; format: biochemical; conditions: 0.1 mol% loading, pH 7.2
Experimental: To further probe other aspects of transmembrane transport mechanism of perenosins, a variety of studies were employed. […] Using the same conditions for sulfate transport, and adding a bicarbonate pulse at 120 s to give a final external bicarbonate concentration of 40 mM, allowed observation of potential Cl^−/HCO3 ^− antiport elicited by 1d and 2–8; no Cl^− efflux was detected, presumably due to the basicity of bicarbonate anion preventing protonation of the imine-N2. Finally, preincorporation of 1d and 2–6 into POPC vesicles followed by performing a similar NMDG-Cl assay, and subsequent dilution of the resulting lipid solution, investigated how perenosins behave in a lipid membrane environment. […] See Supplementary Information for more details of results and experimental details of these assays.
S10. Anion Transport Studies
S10.1. General Procedure for the ISE Assay
Unilamellar vesicles were prepared using previously reported literature procedures7-9. A lipid film of POPC (1-palmitoyl-2-oleoyl-sn-glycero-3-phosphocholine) or POPC:cholesterol (7:3 molar ratio) was prepared from a chloroform solution under reduced pressure and then dried under vacuum for 4 or more hours. The lipid film was rehydrated by vortexing with an internal solution of buffered metal chloride salt (usually 489 mM MCl). The lipid suspension was then subjected to 9 freeze-thaw cycles and left to rest at room temperature for 30 minutes. After this, the suspension was extruded 25 times through a 200 nm polycarbonate membrane resulting in unilamellar vesicles of a mean diameter of 200 nm. […]
The lipid stock was diluted with the external buffer solution to a standard volume (5 mL), to afford a solution with a lipid concentration of 1 mM. The compounds were added as a DMSO solution (10 μL) at the start of the experiment and the resulting chloride efflux was monitored using a chloride selective electrode over 5 minutes. After this time, detergent (50 μL of Triton X-100 (11 w%) in H2O:DMSO (7:1 v/v)) was added to lyse the vesicles and after 7 minutes a final chloride efflux reading was taken. […]

[2] = pKa by UV spectrophotometric titration in POPC vesicles; format: physicochemical; conditions: apparent pKa in presence of POPC lipid bilayer, NaCl 500 mM, phosphate 5 mM
From the text: The pK a at which protonation of the imine (N2, see Fig. 3) occurs gives an indication of the optimum pH for the binding of chloride anions. This is an important consideration in anti-cancer drug development as the external pH environment of cancer cells is mildly acidic (pH 6.7)[53] compared to that of healthy cells (pH 7.2–7.5)[54]. This can be exploited to selectively target cancer cells and potentially reduce the cytotoxic effects of perenosins when used as therapeutics for anti-cancer treatment. The apparent pK a values, shown in Table 1, for compounds 1d and 2–8 were determined both in aqueous solution (pK a (aq)) and in the presence of a 1-palmitoyl-2-oleoyl-sn-glycero-3-phosphocholine (POPC) lipid bilayer membrane (pK a (mem)). UV spectrophotometric titrations were conducted by varying the pH condition from neutral to acidic with the titration of either HPF6 or HCl.
The apparent pK a values were derived from nonlinear curve fitting of the absorbance plotted against the pH; global fitting of both wavelengths corresponding to the neutral and protonated species were performed whenever feasible, see Supplementary Information for details. […]
All spectra obtained have the increasing and decreasing peaks marked with an arrow.
Isosbestic points were not observed in the titrations due to break down of the imine in acidic conditions. The breakdown product is shown, for all compounds, as the increasing absorbance peak […]
S6.2 pKa Studies in Vesicles pKa values for compounds 1d, 2, 4, 5, 7 and 8 were determined experimentally in vesicles through a […]
absorbance between the UV -Vis spectra of the protonated and the neutral species. Unilamellar vesicles were prepared using previously reported literature procedures 7-9. A lipid film of POPC (1 - palmitoyl-2-oleoyl-sn-glycero-3-phosphocholine) was prepared from a chloroform solution under reduced pressure and then dried under vacuum for 4 or more hours. The lipid film was rehydrated by vortexing with a solution of phosphate buffered (5 mM) sodium chloride (500 mM). The lipid suspension was then subjected to 9 freeze-thaw cycles and left to rest at room temperature for 30 minutes. After this, the suspension was extruded 25 times through a 400 nm polycarbonate membrane resulting in unilamellar vesicles of a mean diameter of 400 nm. The titration solution was made up to a standard volume (2500 μL, 1 mM) with the lipid (615 μL), phosphate buffered (5 mM) sodium chloride (500 mM) solution ([…]) and a transporter solution (10 μL, 25 mM), and the pH of this was noted . The UV-Vis spectra were recorded on an Agilent Cary 100 UV-Vis spectrophotometer at 25 °C with baseline correction, using standard 10 mm quartz glass cells. A baseline absorbance was measured using a solution of lipid, phosphate buffered (5 mM) sodium chloride (500 mM) and DMSO, and then the absorbance of the titration solution was measured. The pH of the solution was decreased stepwise by adding small aliquots of hydrochloric acid (0.1 mM).
(1 picture or pasted object on this page, not shown here)
After each pH decrease an absorbance measurement was taken. The absorbance at a certain wavelength (shown for each compound below) was plotted against the pH and then fitted using a dose response curve in OriginPro 9.1, where the point of inflection corresponds to the apparent pKa […]
Figure S44. Absorbance spectra taken over the course of a pH-spectrophotometric titration of 1d (25 mM) in a sodium chloride (500 mM) phosphate buffered (5 mM) lipid solution (1 mM). Inset: Abs vs. pH with dose response curve fit and the point of inflection corresponding to the p Ka value.
Figure S45. Absorbance spectra taken over the course of a pH -spectrophotometric titration of 2 (25 […]
pH with dose response curve fit with the point o f inflection corresponding to the p Ka value. […]

Row | Structure (SMILES) | chloride efflux in POPC:Cholesterol (7:3) vesicles [1] | pK a (mem) [2]
1 | CCCCCc1cc2cc(C)cc(/N=C/c3[nH]c4ccccc4c3C)c2[nH]1 [Perenosin 8] | no chloride efflux | 5.62
2 | CCCCCc1cc(/N=C/c2[nH]c(C)cc2C)c2[nH]ccc2c1 [Perenosin 1d] |  | 5.42
3 | CCCCCc1cc(/N=C/c2[nH]c3ccccc3c2C)c2[nH]ccc2c1 [Perenosin 7] | no chloride efflux | 5.07
4 | CCCCCc1c(C)[nH]c(/C=N/c2cc(C)cc3cc[nH]c23)c1C [Perenosin 5] |  | 5.81
5 | CCCCCc1cc2cc(C)cc(/N=C/c3[nH]c(C)cc3C)c2[nH]1 [Perenosin 2] | 70% | 5.85
6 | CCCc1cc2cc(C)cc(/N=C/c3[nH]c(C)cc3C)c2[nH]1 [Perenosin 4] |  | 6.12
